Read-outs that look alike come from different tables or passages of the source.
Target: T1, human Nav1.8 (Homo sapiens, UniProt Q9Y5Y9)
T1 construct: expressed in transfected cells; host or cells: HEK293 (HEK293-Nav1.8)
Test: Nav1.8 sodium channels assay, QPatch 48 HTX electrophysiology in HEK293-Nav1.8 cells
Assay type: cell-based
Description: Human embryonic kidney […] cells (HEK293) expressing human Nav1.8, human Navβ1 and human TREK1 (HEK293-Nav1.8) were grown at 37° C., 5% CO2 in 150 cm^2 flasks. HEK293-Nav1.8 were passaged every 2-3 days when confluency reached 80-90% in to T175 cell culture flasks.
Pharmacological assessment of the invention was performed using HEK293-Nav1.8 in combination with an assay developed on the QPatch 48 HTX electrophysiological system. HEK293-Nav1.8 were prepared on the day of use by removing culture media, washing in DPBS, adding Accutase (2 ml to cover the surface, aspirate 1 ml then 1.5 min at 37° C.) followed by addition of CHO-SFM II to stop the enzyme digestion and in order to obtain a suspension of 3×10^6 cell/mL.
The invention was prepared in an extracellular solution of the following composition (in mM) NaCl 145, KCl 4, CaCl2 2, MgCl 2, HEPES 1, Glucose 10, pH 7.4 with NaOH Osmolality 300 mOsM/L. The intracellular solution was used of the following composition (in mM) CsF 115, CsCl 20, NaCl 5, EGTA 10, HEPES 10, Sucrose 20, pH 7.2 with CsOH Osmolality 310 mOsm/L.
Utilizing the voltage-clamp mode in the QPatch 48 HTX system a half inactivation state voltage protocol (V1/2) was used to determine pharmacological activity of the invention at Nav1.8 ion channels. A V1/2 protocol was utilized with the following voltage steps: a holding voltage of −100 mV was established followed by a 20 ms voltage step to 0 mV (P1), followed by an inactivating voltage step at −46 mV for 8 seconds, followed by a step to −100 mV for 20 ms, before a 20 ms step to 0 mV (P2) before returning to the holding voltage of −100 mV. This voltage protocol was repeated at a frequency of 0.07 Hz., current magnitude was quantified at the P2 step throughout the recording. Inhibition of the measured current amplitude with the invention was analyzed by fitting a 6-8 point dose-response curve allowing determination of the fifty percent inhibition concentration (IC50). Within the QPatch HTX software, P2 current was normalized according to measurements made at baseline after compound and after positive reference compound and fit to the following equation: […]
To assess current run-down over the course of the experiment vehicle-only wells were utilized and the normalized current with vehicle-only (n.IVEH) was determined. To correct the compound response for run-down, the currents were correct according the following formula: […]
Compounds of the invention are tested for activity against Nav1. 8 sodium channels in the above assay.

[1] = at least one set of experimental runs, read-out: average pIC50 value against Nav1.8 (converted)
[2] = Table 1, HEK293-Nav1.8, QPatch 48 HTX, half inactivation state voltage protocol (V1/2), single run or average of two or more runs, read-out: Nav1.8 pIC50 (converted)

T1 sequence (Q9Y5Y9 whole entry): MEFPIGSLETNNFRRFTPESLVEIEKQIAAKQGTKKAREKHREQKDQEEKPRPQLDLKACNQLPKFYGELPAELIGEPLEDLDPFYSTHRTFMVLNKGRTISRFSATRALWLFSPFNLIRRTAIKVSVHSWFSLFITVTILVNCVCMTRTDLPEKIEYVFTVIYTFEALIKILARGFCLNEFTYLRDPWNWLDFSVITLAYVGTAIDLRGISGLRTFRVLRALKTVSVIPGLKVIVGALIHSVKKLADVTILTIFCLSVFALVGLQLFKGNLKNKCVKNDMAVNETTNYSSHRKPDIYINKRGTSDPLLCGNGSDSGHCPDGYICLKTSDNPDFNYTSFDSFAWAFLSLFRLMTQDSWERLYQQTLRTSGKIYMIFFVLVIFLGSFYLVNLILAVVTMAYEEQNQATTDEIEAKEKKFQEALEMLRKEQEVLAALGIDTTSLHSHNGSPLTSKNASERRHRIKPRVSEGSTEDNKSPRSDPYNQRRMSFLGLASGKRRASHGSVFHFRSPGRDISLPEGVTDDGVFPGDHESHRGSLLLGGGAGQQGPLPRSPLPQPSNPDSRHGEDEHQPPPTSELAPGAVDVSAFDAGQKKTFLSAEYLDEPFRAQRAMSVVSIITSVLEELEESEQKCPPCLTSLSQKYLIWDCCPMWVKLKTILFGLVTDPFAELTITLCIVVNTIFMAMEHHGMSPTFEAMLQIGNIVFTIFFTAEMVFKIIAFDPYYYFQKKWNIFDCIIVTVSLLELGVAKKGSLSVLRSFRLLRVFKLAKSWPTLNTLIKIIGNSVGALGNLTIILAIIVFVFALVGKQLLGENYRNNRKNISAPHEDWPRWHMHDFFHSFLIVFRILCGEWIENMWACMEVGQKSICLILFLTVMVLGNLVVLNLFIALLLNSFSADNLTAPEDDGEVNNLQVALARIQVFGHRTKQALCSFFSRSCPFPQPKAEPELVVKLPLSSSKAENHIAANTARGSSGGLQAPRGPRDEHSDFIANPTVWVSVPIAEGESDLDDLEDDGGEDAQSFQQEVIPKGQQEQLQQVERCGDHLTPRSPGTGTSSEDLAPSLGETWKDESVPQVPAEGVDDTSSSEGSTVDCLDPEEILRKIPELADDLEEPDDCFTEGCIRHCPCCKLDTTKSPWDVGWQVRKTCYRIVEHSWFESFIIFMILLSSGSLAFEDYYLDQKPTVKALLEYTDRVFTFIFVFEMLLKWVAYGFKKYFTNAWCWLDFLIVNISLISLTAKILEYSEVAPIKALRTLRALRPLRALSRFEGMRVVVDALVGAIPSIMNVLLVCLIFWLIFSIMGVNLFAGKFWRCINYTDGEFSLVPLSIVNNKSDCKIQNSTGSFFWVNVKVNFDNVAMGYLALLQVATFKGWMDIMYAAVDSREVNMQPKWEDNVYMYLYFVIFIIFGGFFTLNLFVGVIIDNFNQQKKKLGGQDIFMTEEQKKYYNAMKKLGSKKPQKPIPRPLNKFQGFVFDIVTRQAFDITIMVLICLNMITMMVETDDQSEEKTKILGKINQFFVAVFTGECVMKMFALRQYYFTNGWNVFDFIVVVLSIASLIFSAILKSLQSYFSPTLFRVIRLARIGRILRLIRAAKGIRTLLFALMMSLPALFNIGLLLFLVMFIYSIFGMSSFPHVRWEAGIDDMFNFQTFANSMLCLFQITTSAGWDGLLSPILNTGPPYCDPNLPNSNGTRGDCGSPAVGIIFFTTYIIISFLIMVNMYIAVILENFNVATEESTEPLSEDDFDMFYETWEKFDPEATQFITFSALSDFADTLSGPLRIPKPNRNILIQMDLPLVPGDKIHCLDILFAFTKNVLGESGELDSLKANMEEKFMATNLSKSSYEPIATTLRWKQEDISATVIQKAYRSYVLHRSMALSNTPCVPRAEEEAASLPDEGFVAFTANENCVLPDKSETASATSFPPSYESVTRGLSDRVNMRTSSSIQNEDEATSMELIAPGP
T1 sequence (Q07699 19-218 partner): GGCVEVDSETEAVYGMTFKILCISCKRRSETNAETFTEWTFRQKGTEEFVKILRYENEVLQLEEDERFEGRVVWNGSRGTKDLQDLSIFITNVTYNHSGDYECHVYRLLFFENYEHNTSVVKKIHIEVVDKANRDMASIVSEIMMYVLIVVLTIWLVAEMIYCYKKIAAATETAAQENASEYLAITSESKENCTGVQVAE

| Compound | IC50 [1] [µM] | other results |
| --- | --- | --- |
| Cc1cc(=O)[nH]c(C)c1N1CN(c2ccc(F)cc2C(C)C)c2ccc(Cl)cc2C1=O (single isomer, unassigned) [Example 292, 6-Chloro-3-(2,4-dimethyl-6-oxo-1,6-dihydropyridin-3-yl)-1-(4-fluoro-2-isopropylphenyl)-2,3-dihydroquinazolin-4(1H)-one] | 0.126 to 0.631 |  |
| Cc1cc(F)ccc1N1CN(c2ccc(=O)[nH]c2C)C(=O)c2cc(Cl)ccc21 [Example 48, 6-chloro-1-(4-fluoro-2-methylphenyl)-3-(2-methyl-6-oxo-1,6-dihydropyridin-3-yl)-2,3-dihydroquinazolin-4(1H)-one] | ≤ 0.1 |  |
| Cc1ccc2c(c1)N(c1ccc(F)cc1C)CN(c1ccc(=O)[nH]c1C)C2=O [drawing 304, 1-(4-fluoro-2-methylphenyl)-7-methyl-3-(2-methyl-6-oxo-1,6-dihydropyridin-3-yl)-2,3-dihydroquinazolin-4(1H)-one] |  | IC50 [2]: 0.00158 µM |
| Cc1cc(F)ccc1N1CN(c2ccc(=O)[nH]c2C)C(=O)c2ccc(Br)cc21 [Example 152, 7-bromo-1-(4-fluoro-2-methylphenyl)-3-(2-methyl-6-oxo-1,6-dihydropyridin-3-yl)-2,3-dihydroquinazolin-4(1H)-one] | ≤ 0.1 |  |
| Cc1cc(F)ccc1N1CN(c2ccc(=O)[nH]c2C)C(=O)c2ccc(C(F)(F)F)cc21 [drawing 268, 1-(4-fluoro-2-methylphenyl)-3-(2-methyl-6-oxo-1,6-dihydropyridin-3-yl)-7-(trifluoromethyl)-2,3-dihydroquinazolin-4(1H)-one] |  | IC50 [2]: 0.02 µM |
| CCc1cc(F)ccc1N1CN(c2ccc(=O)[nH]c2C)C(=O)c2ccc(C(F)(F)F)cc21 [Example 184, 1-(2-ethyl-4-fluorophenyl)-3-(2-methyl-6-oxo-1,6-dihydropyridin-3-yl)-7-(trifluoromethyl)-2,3-dihydroquinazolin-4(1H)-one] | ≤ 0.1 |  |
| Cc1cc(F)ccc1N1CN(c2c(C)nc(=O)[nH]c2C)C(=O)c2ccc(C(F)(F)F)cc21 [Example 94, 3-(4,6-dimethyl-2-oxo-1,2-dihydropyrimidin-5-yl)-1-(4-fluoro-2-methylphenyl)-7-(trifluoromethyl)-2,3-dihydroquinazolin-4(1H)-one] | 0.794 to 7.94 |  |
| Cc1cc(F)ccc1N1CN(c2ccc(=O)[nH]n2)C(=O)c2ccc(C(F)(F)F)cc21 [drawing 307, 1-(4-fluoro-2-methylphenyl)-3-(6-oxo-1,6-dihydropyridazin-3-yl)-7-(trifluoromethyl)-2,3-dihydroquinazolin-4(1H)-one] |  | IC50 [2]: 2 µM |
| Cc1[nH]c(=O)ccc1N1CN(c2ccc(F)cc2N(C)C)c2ccc(Cl)cc2C1=O [Example 200, 6-chloro-1-(2-(dimethylamino)-4-fluorophenyl)-3-(2-methyl-6-oxo-1,6-dihydropyridin-3-yl)-2,3-dihydroquinazolin-4(1H)-one] | ≤ 0.1 |  |
| Cc1cc(F)ccc1N1CN(c2ccc(=O)[nH]c2C)C(=O)c2ccc(OC(F)(F)F)cc21 [drawing 303, 1-(4-fluoro-2-methylphenyl)-3-(2-methyl-6-oxo-1,6-dihydropyridin-3-yl)-7-(trifluoromethoxy)-2,3-dihydroquinazolin-4(1H)-one] |  | IC50 [2]: 0.00316 µM |
| Cc1[nH]c(=O)ccc1N1CN(c2ccc(F)cc2C(C)C)c2nc(C(F)(F)F)ccc2C1=O [Example 212, 1-(4-fluoro-2-isopropylphenyl)-3-(2-methyl-6-oxo-1,6-dihydropyridin-3-yl)-7-(trifluoromethyl)-2,3-dihydropyrido[2,3-d]pyrimidin-4(1H)-one] | ≤ 0.1 |  |
| Cc1c[nH]c(=O)cc1N1CN(c2ccc(F)cc2C)c2cc(C(F)(F)F)ccc2C1=O [drawing 311, 1-(4-fluoro-2-methylphenyl)-3-(5-methyl-2-oxo-1,2-dihydropyridin-4-yl)-7-(trifluoromethyl)-2,3-dihydroquinazolin-4(1H)-one] |  | IC50 (Table 2, HEK293-Nav1.8, QPatch 48 HTX, half inactivation state voltage protocol (V1/2), single run or average of two or more runs, read-out: Nav1.8 pIC50 (converted)): 1 µM |
| Cc1[nH]c(=O)ccc1N1CN(C23CC(C2)C3)c2cc(C(F)(F)F)ccc2C1=O [Example 237, 1-(bicyclo[1.1.1]pentan-1-yl)-3-(2-methyl-6-oxo-1,6-dihydropyridin-3-yl)-7-(trifluoromethyl)-2,3-dihydroquinazolin-4(1H)-one] | 0.794 to 7.94 |  |
| Cc1cc(F)ccc1N1CN(c2ccc(=O)[nH]c2C)C(=O)c2cc(Cl)c(C)nc21 [Example 72, 6-chloro-1-(4-fluoro-2-methylphenyl)-7-methyl-3-(2-methyl-6-oxo-1,6-dihydropyridin-3-yl)-2,3-dihydropyrido[2,3-d]pyrimidin-4(1H)-one] | ≤ 0.1 |  |
| Cc1cc(F)ccc1N1CN(c2c(C)cc(=O)[nH]c2Br)C(=O)c2ccc(C(F)(F)F)cc21 [Example 211, 3-(2-bromo-4-methyl-6-oxo-1,6-dihydropyridin-3-yl)-1-(4-fluoro-2-methylphenyl)-7-(trifluoromethyl)-2,3-dihydroquinazolin-4(1H)-one] | 0.794 to 7.94 |  |
| Cc1cc(F)ccc1N1CN(c2ccc(=O)[nH]c2Cl)C(=O)c2ccc(C(F)(F)F)cc21 [drawing 292, 3-(2-chloro-6-oxo-1,6-dihydropyridin-3-yl)-1-(4-fluoro-2-methylphenyl)-7-(trifluoromethyl)-2,3-dihydroquinazolin-4(1H)-one] |  | IC50 [2]: 0.794 µM |
| Cc1[nH]c(=O)ccc1N1CN(c2ccc(F)cc2C(C)C)c2ncc(F)cc2C1=O [Example 141, 6-fluoro-1-(4-fluoro-2-isopropylphenyl)-3-(2-methyl-6-oxo-1,6-dihydropyridin-3-yl)-2,3-dihydropyrido[2,3-d]pyrimidin-4(1H)-one] | 0.126 to 0.631 |  |
| CCc1cc(F)ccc1N1CN(c2ccc(=O)[nH]c2)C(=O)c2ccc(C(F)(F)F)cc21 [Example 43, 1-(2-ethyl-4-fluorophenyl)-3-(6-oxo-1,6-dihydropyridin-3-yl)-7-(trifluoromethyl)-2,3-dihydroquinazolin-4(1H)-one] | 0.126 to 0.631 |  |
| Cc1cnccc1N1CN(c2ccc(F)cc2C)c2ccc(C(F)(F)F)cc2C1=O [Example 16, 1-(4-fluoro-2-methylphenyl)-3-(3-methylpyridin-4-yl)-6-(trifluoromethyl)-2,3-dihydroquinazolin-4(1H)-one] | 0.126 to 0.631 |  |
| CCc1cc(F)ccc1N1CN(c2ccc(=O)[nH]c2C)C(=O)c2cc(Cl)c(F)cc21 [Example 191, 6-chloro-1-(2-ethyl-4-fluorophenyl)-7-fluoro-3-(2-methyl-6-oxo-1,6-dihydropyridin-3-yl)-2,3-dihydroquinazolin-4(1H)-one] | ≤ 0.1 |  |
| Cc1ccc2c(c1)N(c1ccc(F)cc1C(C)C)CN(c1ccc(=O)[nH]c1C)C2=O [Example 69, 1-(4-fluoro-2-isopropylphenyl)-7-methyl-3-(2-methyl-6-oxo-1,6-dihydropyridin-3-yl)-2,3-dihydroquinazolin-4(1H)-one] | ≤ 0.1 |  |
| Cc1cc(F)ccc1N1CN(c2ccc(=O)[nH]c2)C(=O)c2ccc(C(F)(F)F)c(C)c21 [drawing 284, 1-(4-fluoro-2-methylphenyl)-8-methyl-3-(6-oxo-1,6-dihydropyridin-3-yl)-7-(trifluoromethyl)-2,3-dihydroquinazolin-4(1H)-one] |  | IC50 [2]: 6.31 µM |
| Cc1cc(F)ccc1N1CN(c2ccc(=O)[nH]c2C)C(=O)c2cc(Cl)c(C(F)F)cc21 [Example 168, 6-chloro-7-(difluoromethyl)-1-(4-fluoro-2-methylphenyl)-3-(2-methyl-6-oxo-1,6-dihydropyridin-3-yl)-2,3-dihydroquinazolin-4(1H)-one] | ≤ 0.1 |  |
| Cc1[nH]c(=O)ccc1N1CN(c2ccc(F)cc2C(C)(C)C)c2cc(C(F)(F)F)ccc2C1=O (single isomer, unassigned) [Example 296, 1-(2-(tert-butyl)-4-fluorophenyl)-3-(2-methyl-6-oxo-1,6-dihydropyridin-3-yl)-7-(trifluoromethyl)-2,3-dihydroquinazolin-4(1H)-one] | ≤ 0.1 |  |
| COc1ccc(N2CN(c3ccc(=O)[nH]c3C)C(=O)c3cc(C(F)(F)F)ccc32)c(C)c1 [Example 126, 1-(4-methoxy-2-methylphenyl)-3-(2-methyl-6-oxo-1,6-dihydropyridin-3-yl)-6-(trifluoromethyl)-2,3-dihydroquinazolin-4(1H)-one] | ≤ 0.1 |  |

— patent US20230103791A1 (GLAXOSMITHKLINE INTELLECTUAL PROPERTY DEVELOPMENT LIMITED, priority 2019, published 2023)
